Like-named read-outs stand apart in the source and are kept apart here.
Experiments:
[1] = Pharmacokinetic studies in C57BL/6 mice (plasma and tissues); type: in vivo, mouse; conditions: for AUC(0-t) / Cmax / Tmax / AUC(0-inf) / half-life / bioavailability: both sexes, C57BL/6, mouse; for bioavailability: read-out: F (absolute bioavailability)
Procedure: To overcome the generally poor PK profile of catechins, we developed a proprietary formulation that allows for the delivery of these drugs in high concentrations for oral (PO) or intranasal (IN) use. Our liquid formulation is based on the solubilizer and penetration enhancer (2-hydroxypropyl)-β-cyclodextrin (HP-β-CD), PEG-400, and water. This vehicle allows us to achieve high drug concentration in dosing solution (up to 20% w/w) when needed. PK studies were conducted for 1c in adult male and female C57BL/6 mice (n = 3/sex/time point) using (1) a single IV dose (5 mg/kg), (2) an IN dose (60 mg/kg, 5 µL of a clear solution/nostril/twice), and (3) a single PO dose (100 mg/kg). We analyzed the concentration of the drug in several tissues, including the brain, lungs, liver, and plasma. We observed that this class of molecules is stable in circulation; however, when the tissues are harvested for bioanalytical work, the drug undergoes rapid degradation, probably because of the direct contact with oxygen and metals, which catalyzes its rapid degradation/oxidation. We were able to stabilize the drug in blood by the immediate addition of ascorbic acid and TCEP [29]; however, the same was not possible with solid organs such as the brain and liver, which need to be collected through surgery and homogenized before any stabilizing agent can be added. Therefore, tissue PK data tend to vary.
C57BL/6J mice were given a single dose of drug via the IN or PO route. […] For PO delivery, we replaced water with saline. The volume for IN delivery was 5 µL/nostril, and the volume used for oral delivery was 10 mL/kg. After sacrifice, blood (500 µL) was collected into K2EDTA microtubes and kept on ice all times (must be centrifuged within 30 min of collection). Blood was centrifuged in EDTA vacuum at 4 °C at 15,000× g for 4 min; ~250 µL of plasma was collected into polyethylene tubes containing 50 µL of AA/TCEP stabilizing solution (20 mM ascorbic acid and 13 mM TCEP in 50 mM K2HPO4 buffer; the pH of the solution was adjusted to 6.5 using 2 M NaOH). Then, 200 µL of the collected plasma was mixed with (1) 24 µL of a solution of 10% ascorbic acid and 0.1% EDTA in 40 mM NaH2PO4; (2) 40 µL of 50 mM sodium phosphate (pH 7.4); (3) 500 units of β-D-glucuronidase type X-A from Escherichia coli (Sigma Chemical Co, St Louis, MO, USA), and (4) 4 units of sulfatase type VIII from abalone entrails (Sigma Chemical Co). The mixture was incubated at 37 °C for 45 min. Plasma was then extracted by the addition of 0.5 mL ACN; the mixture was vortex-mixed for 2 min, then snap-frozen with isopropanol/carbon dioxide dry ice, and the upper layer of ACN was removed. The process was repeated another 2 times. The ACN fractions were pooled into a polyethylene tube kept on ice. The combined fractions were evaporated under a gentle stream of nitrogen at ambient temperature. The residue obtained after evaporation was reconstituted in 200 µL of 75 mM citric acid//25 mM ammonium acetate: ACN (75:25 by vol), and vortexed vigorously for 5 min, and 20 µL of the resulting solution was injected into the LC-MS/MS column.
Drug analysis in tissues: About ~0.4 g of the tissue was homogenized with 1 mL of ice-cold 0.4 M sodium phosphate buffer containing 6 mg of ascorbic acid and 0.5 mg of Na2EDTA (final pH of 6.5). After centrifugation at 4 °C at 15,000× g for 4 min, the supernatant was collected into polyethylene tubes containing 50 µL of the AA/TCEP stabilizing solution. Then 1 U of sulfatase and 250 U of β-glucuronidase were added to the abovementioned homogenized mixture. Samples were incubated at 37 °C for 45 min, then extracted, dried, and resuspended in a manner similar to that for plasma. Samples were then analyzed by LC-MS/MS.

[2] = target: T1, human DYRK2 isoform 1 (6xHis-tagged) (Homo sapiens, UniProt Q92630); assay: ELISA-based non-radioactive kinase assay, DYRK2; type: biochemical
T1 sequence (Q92630 74-601 limits assumed): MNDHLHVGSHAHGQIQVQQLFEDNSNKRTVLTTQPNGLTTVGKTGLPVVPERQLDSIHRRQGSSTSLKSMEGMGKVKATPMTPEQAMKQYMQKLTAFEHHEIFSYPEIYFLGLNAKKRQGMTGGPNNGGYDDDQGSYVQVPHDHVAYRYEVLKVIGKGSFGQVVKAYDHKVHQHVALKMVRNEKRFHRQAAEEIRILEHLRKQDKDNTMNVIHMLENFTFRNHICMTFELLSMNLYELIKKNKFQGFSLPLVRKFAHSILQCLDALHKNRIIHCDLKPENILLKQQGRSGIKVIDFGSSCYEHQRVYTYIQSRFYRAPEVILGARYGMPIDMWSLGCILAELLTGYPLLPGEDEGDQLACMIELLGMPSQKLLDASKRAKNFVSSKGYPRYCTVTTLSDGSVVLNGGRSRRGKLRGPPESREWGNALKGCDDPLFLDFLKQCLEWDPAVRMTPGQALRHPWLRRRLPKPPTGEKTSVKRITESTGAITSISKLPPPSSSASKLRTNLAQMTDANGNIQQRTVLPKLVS
Procedure: DYRK1B was prepared from human DYRK1B isoform p65 as glutathione S-transferase fusion protein, and DYRK2 was prepared from human DYRK2 isoform 1 as 6xHis-tagged protein, as previously described.
For DYRK2, the reactions were performed exactly as described for DYRK1A. For DYRK1B, the assays were similarly conducted but with 30 ng GST-DYRK1B and a kinase reaction time of 60 min.

[3] = inhaled or intranasal, IN (60 mg/kg), brain
[4] = inhaled or intranasal, IN (60 mg/kg), plasma

COc1cc(C(=O)O[C@@H]2Cc3c(O)cc(O)cc3O[C@H]2c2cc(O)c(O)c(O)c2)c(F)c(O)c1O [Compound 1c] gave a Tlast ([1]; IN (60 mg/kg), brain) of 8 h, a Tlast ([1]; IN (60 mg/kg), plasma) of 24 h and a Tlast ([1]; PO (100 mg/kg), brain) of 24 h. It also gave a Tlast ([1]; PO (100 mg/kg), plasma) of 24 h, an AUC(0-t) ([1]; PO (100 mg/kg), brain) of 2390 ng·h/mL and a Cmax ([1]; PO (100 mg/kg), brain) of 110 ng/mL. For the same molecule, the Tmax ([1]; PO (100 mg/kg), brain) was 2 h, the AUC(0-inf) ([1]; PO (100 mg/kg), plasma) was 4280 ng·h/mL and the AUC(0-t) ([1]; PO (100 mg/kg), plasma) was 4170 ng·h/mL. For the same molecule, the Cmax ([1]; PO (100 mg/kg), plasma) was 684 ng/mL, the Tmax ([1]; PO (100 mg/kg), plasma) was 1 h and the half-life ([1]; PO (100 mg/kg), plasma) was 4.7 h. It also gave an AUC(0-t) [1, 3] of 116 ng·h/mL, a Cmax [1, 3] of 18 ng/mL and a Tmax [1, 3] of 0.5 h. For the same molecule, the AUC(0-inf) [1, 4] was 16100 ng·h/mL, the AUC(0-t) [1, 4] was 15800 ng·h/mL and the Cmax [1, 4] was 2350 ng/mL. It also gave a Tmax [1, 4] of 2 h, a half-life [1, 4] of 4.8 h and an AUC(0-inf) ([1]; plasma, iv, i.v. (5mg/kg)) of 1390 ng·h/mL. It also gave an AUC(0-t) ([1]; plasma, iv, i.v. (5mg/kg)) of 1280 ng·h/mL, a Cmax ([1]; plasma, iv, i.v. (5mg/kg)) of 657 ng/mL and a Tmax ([1]; plasma, iv, i.v. (5mg/kg)) of 0 h. It also gave a half-life ([1]; plasma, iv, i.v. (5mg/kg)) of 3.2 h, a bioavailability ([1]; plasma, other: intranasal (IN), 60 mg/kg, IN (60 mg/kg), plasma) of 100% and a bioavailability ([1]; plasma, po, 100 mg/kg, PO (100 mg/kg), plasma) of ~16%. For the same molecule, the Tlast ([1]; i.v. (5mg/kg)) was 10 h and the IC50 [2] was 331 nM.

— paper PMC10058583, “Development of Novel Fluorinated Polyphenols as Selective Inhibitors of DYRK1A/B Kinase for Treatment of Neuroinflammatory Diseases including Parkinson’s Disease” (Pharmaceuticals, 2023)
